Test results: ChEMBL document CHEMBL5325505, “Discovery of chiral 1,4-diarylazetidin-2-one-based hydroxamic acid derivatives as novel tubulin polymerization inhibitors with histone deacetylase inhibitory activity” (Bioorg Med Chem, 2023)
In brackets after ≈: the same amount, converted by molar mass.

What was measured:
HCT-116 = experiment: Antiproliferative activity against human HCT-116 cells incubated for 48 hrs by MTT assay; format: functional, cell-based; settings: HCT-116, 48 h
A549 = experiment: Antiproliferative activity against human A549 cells incubated for 48 hrs by MTT assay; format: functional, cell-based; settings: A549, 48 h
U-87 MG = experiment: Antiproliferative activity against human U-87 MG cells incubated for 48 hrs by MTT assay; format: functional, cell-based, U-87MG ATCC
BE(2)-C [1] = experiment: Antiproliferative activity against human BE2C cells incubated for 48 hrs by MTT assay; format: functional, cell-based
[2] = target: T1, Protein deacetylase HDAC6 (Homo sapiens, UniProt Q9UBN7); experiment: Inhibition of HDAC6 (unknown origin)
T1 sequence (Q9UBN7 whole entry): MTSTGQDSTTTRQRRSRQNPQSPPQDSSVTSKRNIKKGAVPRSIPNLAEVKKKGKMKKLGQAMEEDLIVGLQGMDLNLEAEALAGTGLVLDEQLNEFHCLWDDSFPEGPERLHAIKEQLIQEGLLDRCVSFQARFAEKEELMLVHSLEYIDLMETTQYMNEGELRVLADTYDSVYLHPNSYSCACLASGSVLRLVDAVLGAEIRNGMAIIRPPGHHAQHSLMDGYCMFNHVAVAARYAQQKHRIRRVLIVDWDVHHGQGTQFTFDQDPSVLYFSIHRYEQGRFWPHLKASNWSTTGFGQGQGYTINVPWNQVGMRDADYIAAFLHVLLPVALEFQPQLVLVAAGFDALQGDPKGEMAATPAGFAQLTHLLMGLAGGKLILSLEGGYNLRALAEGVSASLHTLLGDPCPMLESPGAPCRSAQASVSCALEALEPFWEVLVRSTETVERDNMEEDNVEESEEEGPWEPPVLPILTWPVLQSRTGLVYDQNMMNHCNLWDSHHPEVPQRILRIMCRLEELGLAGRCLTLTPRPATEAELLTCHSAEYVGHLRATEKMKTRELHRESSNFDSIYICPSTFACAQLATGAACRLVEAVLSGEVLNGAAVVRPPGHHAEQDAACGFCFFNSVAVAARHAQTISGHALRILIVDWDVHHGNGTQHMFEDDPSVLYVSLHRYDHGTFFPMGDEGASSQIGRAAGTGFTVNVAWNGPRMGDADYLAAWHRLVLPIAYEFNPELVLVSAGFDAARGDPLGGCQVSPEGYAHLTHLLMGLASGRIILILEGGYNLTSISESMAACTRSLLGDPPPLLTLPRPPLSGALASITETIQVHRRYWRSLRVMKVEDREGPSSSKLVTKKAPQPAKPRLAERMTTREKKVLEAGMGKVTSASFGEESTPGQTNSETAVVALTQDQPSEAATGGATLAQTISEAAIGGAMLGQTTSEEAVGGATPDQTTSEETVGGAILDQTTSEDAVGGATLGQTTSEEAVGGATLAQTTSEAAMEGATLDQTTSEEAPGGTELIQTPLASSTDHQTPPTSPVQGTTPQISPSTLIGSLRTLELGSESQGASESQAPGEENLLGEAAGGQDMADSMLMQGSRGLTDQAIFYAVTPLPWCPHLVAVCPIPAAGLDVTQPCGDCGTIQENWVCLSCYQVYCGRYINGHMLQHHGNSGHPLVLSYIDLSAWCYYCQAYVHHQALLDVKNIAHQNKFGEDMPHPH

Histone deacetylase 1 = Histone deacetylase 1 (Homo sapiens, UniProt Q13547); experiment: Inhibition of HDAC1 (unknown origin)
Histone deacetylase 8 = target: T2, Histone deacetylase 8 (Homo sapiens, UniProt Q9BY41); experiment: Inhibition of HDAC8 (unknown origin)
T2 sequence (Q9BY41 whole entry): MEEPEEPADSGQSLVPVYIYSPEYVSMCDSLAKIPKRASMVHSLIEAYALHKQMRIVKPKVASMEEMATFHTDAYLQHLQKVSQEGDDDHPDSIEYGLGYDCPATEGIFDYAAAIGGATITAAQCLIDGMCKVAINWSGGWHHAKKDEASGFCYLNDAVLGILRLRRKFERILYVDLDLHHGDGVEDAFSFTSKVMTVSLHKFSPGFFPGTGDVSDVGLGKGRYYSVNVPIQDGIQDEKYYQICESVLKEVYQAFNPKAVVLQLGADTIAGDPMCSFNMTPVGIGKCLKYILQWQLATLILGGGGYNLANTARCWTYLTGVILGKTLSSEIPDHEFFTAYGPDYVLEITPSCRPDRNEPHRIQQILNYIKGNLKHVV

[3] = Aqueous solubility of compound at 1 mg incubated for 10 mins; format: physicochemical
[4] = Metabolic stability in human liver microsomes assessed as compound remaining incubated for 10 mins; format: ADME, Microsome; settings: read-out: Stability
[5] = Metabolic stability in human liver microsomes assessed as compound remaining incubated for 5 mins; format: ADME, Microsome; settings: read-out: Stability
[6] = Metabolic stability in human liver microsomes assessed as compound remaining incubated for 60 mins; format: ADME, Microsome; settings: microsomes, 1 h
[7] = Metabolic stability in human liver microsomes assessed as compound remaining incubated for 30 mins; format: ADME, Microsome; settings: microsomes, 0.5 h
[8] = Metabolic stability in human liver microsomes assessed as half life; format: ADME, Microsome
[9] = Metabolic stability in human liver microsomes assessed as intrinsic clearance; format: ADME, Microsome; settings: read-out: CLH
[10] = Metabolic stability in human liver microsomes assessed as compound remaining incubated for 20 mins; format: ADME, Microsome; settings: liver microsomes, read-out: Stability
BE(2)-C [11] = experiment: Antitumor activity against human BE2C cells xenografted in nude mouse assessed as tumor growth inhibition at 5 mg/kg, ip treated for every 3 days relative to control; format: functional; settings: 72 h, time 3 day, read-out: TGI
Tubulin = Tubulin (Sus scrofa, UniProt P02554+P02550); experiment: Inhibition of tubulin polymerization of pig brain by absorbance based assay

Chain of Histone deacetylase 1 (Q13547 whole entry): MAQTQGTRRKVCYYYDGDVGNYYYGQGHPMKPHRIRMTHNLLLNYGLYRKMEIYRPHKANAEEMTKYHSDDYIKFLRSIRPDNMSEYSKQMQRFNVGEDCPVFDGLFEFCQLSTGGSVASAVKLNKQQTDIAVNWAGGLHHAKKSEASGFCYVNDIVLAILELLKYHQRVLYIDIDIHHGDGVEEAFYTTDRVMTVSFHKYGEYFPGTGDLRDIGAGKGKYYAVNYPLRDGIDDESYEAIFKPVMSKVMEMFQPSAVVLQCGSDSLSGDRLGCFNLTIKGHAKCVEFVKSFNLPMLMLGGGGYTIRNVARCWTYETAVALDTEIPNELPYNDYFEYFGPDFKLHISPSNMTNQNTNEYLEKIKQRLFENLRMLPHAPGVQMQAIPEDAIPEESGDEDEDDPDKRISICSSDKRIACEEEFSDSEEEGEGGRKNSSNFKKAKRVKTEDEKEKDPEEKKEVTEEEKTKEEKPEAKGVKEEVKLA

COc1ccc([C@H]2[C@H](CNC(=O)CCC(=O)NO)C(=O)N2c2cc(OC)c(OC)c(OC)c2)cc1O
IC50 (HCT-116): > 10000 nM | IC50 (A549): > 10000 nM | IC50 (U-87 MG): > 10000 nM | IC50 (BE(2)-C [1]): > 10000 nM

COc1ccc([C@H]2[C@H](C)C(=O)N2c2cc(OC)c(OC)c(OC)c2)cc1OCCCCC(=O)NO
IC50 (HCT-116): > 10000 nM | IC50 (A549): 2340 nM | IC50 (U-87 MG): > 10000 nM | IC50 (BE(2)-C [1]): 3970 nM

COc1ccc([C@H]2[C@H](CNC(=O)CCCC(=O)NO)C(=O)N2c2cc(OC)c(OC)c(OC)c2)cc1O
IC50 (HCT-116): > 10000 nM | IC50 (A549): > 10000 nM | IC50 (U-87 MG): > 10000 nM | IC50 (BE(2)-C [1]): > 10000 nM

COc1ccc([C@H]2[C@H](C)C(=O)N2c2cc(OC)c(OC)c(OC)c2)cc1OCCCCCC(=O)NO
IC50 (HCT-116): 464 nM | IC50 (A549): 7820 nM | IC50 (U-87 MG): > 10000 nM | IC50 (BE(2)-C [1]): 7690 nM

COc1ccc([C@H]2[C@H](COC(=O)CCC(=O)NO)C(=O)N2c2cc(OC)c(OC)c(OC)c2)cc1O
IC50 (HCT-116): > 10000 nM | IC50 [2]: 2410 nM | IC50 (A549): 16 nM | IC50 (U-87 MG): > 10000 nM | IC50 (BE(2)-C [1]): 43 nM | IC50 (Histone deacetylase 1): 301 nM | IC50 (Histone deacetylase 8): 288 nM

COc1ccc([C@H]2[C@H](C)C(=O)N2c2cc(OC)c(OC)c(OC)c2)cc1OCC(=O)NO
IC50 (HCT-116): 82 nM | IC50 (A549): 54 nM | IC50 (U-87 MG): 56 nM | IC50 (BE(2)-C [1]): 30 nM

COc1ccc(/C=C\c2cc(OC)c(OC)c(OC)c2)cc1O [COMBRETASTATIN A4]
solubility at 10 min [3]: 1.04 µg/mL (≈ 3.29 µM)

COc1ccc([C@H]2[C@H](COC(=O)CCCC(=O)NO)C(=O)N2c2cc(OC)c(OC)c(OC)c2)cc1O
IC50 (HCT-116): > 10000 nM | IC50 (A549): > 10000 nM | IC50 (U-87 MG): > 10000 nM | IC50 (BE(2)-C [1]): > 10000 nM

O=C(CCCCCCC(=O)Nc1ccccc1)NO [VORINOSTAT]
remaining at 10 min [4]: 98.4% | remaining at 5 min [5]: 96.4% | Stability [6]: 92.8% | Stability [7]: 105.7% | t1/2 [8]: 145 min | CLint scaled [9]: < 8.6 mL/min/kg | IC50 (BE(2)-C [1]): 2110 nM | solubility at 10 min [3]: 91.7 µg/mL (≈ 347 µM) | remaining at 20 min [10]: 99%

COc1ccc([C@H]2[C@H](CNC(=O)c3ccc(C(=O)NO)cc3)C(=O)N2c2cc(OC)c(OC)c(OC)c2)cc1O
IC50 (HCT-116): 500 nM | IC50 (A549): 479 nM | IC50 (U-87 MG): > 10000 nM | IC50 (BE(2)-C [1]): 303 nM

C=C1C(=O)N(c2cc(OC)c(OC)c(OC)c2)[C@H]1c1ccc(OC)c(/C=C/C(=O)NO)c1
IC50 (HCT-116): 60 nM | IC50 (A549): 84 nM | IC50 (U-87 MG): 72 nM | IC50 (BE(2)-C [1]): 35 nM

CC(=O)O[C@H]1C(=O)[C@@]2(C)[C@H]([C@H](OC(=O)c3ccccc3)[C@]3(O)C[C@H](OC(=O)[C@H](O)[C@@H](NC(=O)c4ccccc4)c4ccccc4)C(C)=C1C3(C)C)[C@]1(OC(C)=O)CO[C@@H]1C[C@@H]2O [PACLITAXEL]
inhibition in vivo at 5 mg/kg (BE(2)-C [11]): 44%

COc1ccc([C@H]2[C@H](C)C(=O)N2c2cc(OC)c(OC)c(OC)c2)cc1OCCCC(=O)NO
IC50 (HCT-116): > 10000 nM | IC50 (A549): 3650 nM | IC50 (U-87 MG): 4400 nM | IC50 (BE(2)-C [1]): 1810 nM

C=C1C(=O)N(c2cc(OC)c(OC)c(OC)c2)[C@H]1c1ccc(OC)c(O)c1
IC50 (HCT-116): 234 nM | IC50 (A549): 128 nM | IC50 (U-87 MG): 143 nM | IC50 (BE(2)-C [1]): 186 nM | IC50 (Tubulin): 6.6 µM

C=C1C(=O)N(c2cc(OC)c(OC)c(OC)c2)[C@H]1c1ccc(OC)c(/C=C/CC(=O)NO)c1
IC50 (HCT-116): 620 nM | IC50 (A549): 1260 nM | IC50 (U-87 MG): 2140 nM | IC50 (BE(2)-C [1]): 45 nM

COc1ccc([C@H]2[C@H](COC(=O)c3ccc(C(=O)O)cc3)C(=O)N2c2cc(OC)c(OC)c(OC)c2)cc1O
IC50 (HCT-116): 397 nM | IC50 (A549): 326 nM | IC50 (U-87 MG): 432 nM | IC50 (BE(2)-C [1]): 776 nM

COc1ccc([C@H]2[C@@H](C)C(=O)N2c2cc(OC)c(OC)c(OC)c2)cc1/C=C/C(=O)NO
IC50 (HCT-116): 304 nM | IC50 (A549): 173 nM | IC50 (U-87 MG): 23 nM | IC50 (BE(2)-C [1]): 317 nM
